Assay [1] has as its system human multiple myeloma RPMI8226 cells. The assay is described as follows: Inhibitory activity against human multiple myeloma RPMI8226 cell growth (CellTiter-Glo). It is filed as cell-based. Particulars: Homo sapiens, RPMI-8226, 192 h, 1 μM of the test compound, cultured for 8 days; read-out: Percent inhibition of RPMI8226 cell growth (%). The method, then: The compound of the present invention was evaluated for its inhibitory activity against human multiple myeloma RPMI8226 cell growth by the following method.
A suspension of human multiple myeloma RPMI8226 cells (purchased from the Health Protection Agency) was inoculated at 40 μL (300 cells/well) to a 384-well plate and cultured at 37° C. for 1 day in a 5% CO2 incubator. After the culture, each test compound solution was added thereto at a test concentration of 1 μM using TECAN D300, and the cells were further cultured for 8 days. After the culture, CellTiter-Glo™ Luminescent Cell Viability Assay reagent (Promega) was added at 40 μL/well to a 384-well plate, and the amount of luminescence was measured using a luminometer. Inhibitory activity against human multiple myeloma RPMI8226 cell growth (percent inhibition (%)) of the test compound was calculated according to the following formula, which is based on the hypothesis that the amount of residual ATP reflects the number of cells. In this formula, 100% control represents the amount of luminescence from a well with only 0.1% DMSO added. Percent inhibition (%)=(1−(amount of luminescence of the test compound)÷(100% control))×100
On the technique in general: In ATP-based viability assays light output follows the ATP content of the culture.

The target of another assay is T1, CDK8/CycC (Homo sapiens, UniProt P49336).
T1 construct: purchased Carna Biosciences
In words: CDK8 inhibitory activity (TR-FRET, Kinase Tracer-236 displacement). Conditions: 1 μM of the test compound; read-out: Percent inhibition of CDK8 activity (%). It is filed as binding. Here is the method:
(§1) The compound of the present invention was evaluated for its CDK8 inhibitory activity and CDK19 inhibitory activity by the following method. […] The primary diluted solution was dispensed in the amount of 2 μL/well to a 384-well plate, and then, a mixed solution of Eu^3+ Cryptate conjugated mouse monoclonal antibody anti-glutathione S-transferase (Cisbio) diluted 267-fold with an assay buffer and 60 nM Kinase Tracer-236 (Life technologies) was added thereto at 2 μL/well. After the addition, each kinase solution (84 ng/mL CDK8/CycC (Carna Biosciences) diluted with an assay buffer used for CDK8 inhibitory activity measurement, and 87 ng/mL CDC2L6/CycC (Carna Biosciences) diluted with an assay buffer used for CDK19 inhibitory activity measurement) was further added thereto at 2 μL/well. After the addition, the plate was left standing at room temperature for 1 hour, and then, the fluorescence intensity (excitation wavelength 320 nm, fluorescence wavelength 615 nm, 665 nm, delay time 50 μsec) was measured using an EnVision plate reader (PerkinElmer).
(In general: TR-FRET usually uses a lanthanide donor and a delayed reading to cut background.)

The next assay concerns the target T2, CDK19 (CDC2L6/CycC) (Homo sapiens, UniProt Q9BWU1).
T2 construct: purchased Carna Biosciences
The assay is described as follows: CDK19 inhibitory activity (TR-FRET, Kinase Tracer-236 displacement). In kind it is binding. Particulars: 1 μM of the test compound; read-out: Percent inhibition of CDK19 activity (%). The method, then: as §1

T2 sequence (Q9BWU1 whole entry): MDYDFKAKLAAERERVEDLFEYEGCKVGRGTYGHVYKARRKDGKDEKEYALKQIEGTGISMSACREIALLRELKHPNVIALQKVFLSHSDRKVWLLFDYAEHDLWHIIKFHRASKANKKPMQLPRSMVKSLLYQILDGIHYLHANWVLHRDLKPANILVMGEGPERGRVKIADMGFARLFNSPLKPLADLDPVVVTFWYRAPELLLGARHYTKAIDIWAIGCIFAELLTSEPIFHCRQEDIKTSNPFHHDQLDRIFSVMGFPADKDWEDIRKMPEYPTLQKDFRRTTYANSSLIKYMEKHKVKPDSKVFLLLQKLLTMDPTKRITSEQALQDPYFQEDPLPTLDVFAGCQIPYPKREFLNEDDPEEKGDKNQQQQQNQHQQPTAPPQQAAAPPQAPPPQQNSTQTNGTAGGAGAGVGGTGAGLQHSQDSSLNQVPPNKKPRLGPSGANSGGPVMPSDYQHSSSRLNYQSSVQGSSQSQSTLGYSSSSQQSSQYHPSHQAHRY
T2 sequence (P24863 whole entry partner): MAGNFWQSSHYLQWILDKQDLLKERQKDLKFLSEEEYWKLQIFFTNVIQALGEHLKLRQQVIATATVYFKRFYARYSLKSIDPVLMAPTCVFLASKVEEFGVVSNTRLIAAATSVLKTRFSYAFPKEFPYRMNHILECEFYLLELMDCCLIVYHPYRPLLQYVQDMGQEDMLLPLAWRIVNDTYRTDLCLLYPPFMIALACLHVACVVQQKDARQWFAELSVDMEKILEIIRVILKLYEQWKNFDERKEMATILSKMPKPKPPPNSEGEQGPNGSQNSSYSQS
T1 sequence (P49336 whole entry): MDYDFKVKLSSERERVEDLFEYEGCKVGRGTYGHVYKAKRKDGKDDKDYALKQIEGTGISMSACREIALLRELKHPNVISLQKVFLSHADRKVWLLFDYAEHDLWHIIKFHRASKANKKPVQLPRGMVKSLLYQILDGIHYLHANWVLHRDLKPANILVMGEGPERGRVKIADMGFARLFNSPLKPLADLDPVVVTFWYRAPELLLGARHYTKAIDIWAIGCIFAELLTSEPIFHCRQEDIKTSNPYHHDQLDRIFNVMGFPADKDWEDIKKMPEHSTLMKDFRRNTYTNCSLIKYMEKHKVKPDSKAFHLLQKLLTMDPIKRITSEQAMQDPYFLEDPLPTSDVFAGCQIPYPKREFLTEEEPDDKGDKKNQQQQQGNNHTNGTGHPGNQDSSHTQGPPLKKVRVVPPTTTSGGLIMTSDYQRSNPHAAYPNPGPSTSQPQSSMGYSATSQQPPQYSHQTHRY
T1 sequence (P24863 whole entry partner): as the sequence (P24863 whole entry partner) above

As to `O=C(/C=C/c1cnccc1-c1cccs1)Nc1ccc(CCc2nnco2)cc1` [Example 1, (2E)-N-(4-(2-(1,3,4-Oxadiazol-2-yl)ethyl)phenyl)-3-(4-(2-thienyl)pyridin-3-yl)acrylamide], the inhibition at 1 µM worked out at 59% in assay [1], 101% on CDK8/CycC and 100% at CDK19 (CDC2L6/CycC).

Regarding `Cc1nn(C)cc1-c1ccncc1/C=C/C(=O)Nc1ccc(CCc2nnco2)cc1` [Example 19, (2E)-3-(4-(1,3-dimethyl-1H-pyrazol-4-yl)pyridin-3-yl)-N-(4-(2-(1,3,4-oxadiazol-2-yl)ethyl)phenyl)acrylamide], the inhibition at 1 µM in assay [1] amounted to 54%; at CDK8/CycC it was 100%; at CDK19 (CDC2L6/CycC), 98%.

With `Cn1cc(-c2ccncc2/C=C/C(=O)Nc2ccc(CN3CCOCC3)cc2)cn1` [Example 31, (2E)-3-(4-(1-Methyl-1H-pyrazol-4-yl)pyridin-3-yl)-N-(4-(morpholin-4-ylmethyl)phenyl)acrylamide], the inhibition at 1 µM in assay [1] worked out at 60%; on CDK8/CycC, 100%; on CDK19 (CDC2L6/CycC) it was 98%.

`O=C(/C=C/c1cnccc1-c1cn[nH]c1)Nc1ccc(CN2CCOCC2)cc1` [Example 33, (2E)-N-(4-(morpholin-4-ylmethyl)phenyl)-3-(4-(1H-pyrazol-4-yl)pyridin-3-yl)acrylamide]: the inhibition at 1 µM in assay [1] was found to be 61%; on CDK8/CycC, 100%; on CDK19 (CDC2L6/CycC) it was 99%.

As for `Cn1cc(-c2ccncc2/C=C/C(=O)Nc2ccc(CN3CCOC(C)(C)C3)cc2)cn1` [Example 37, (2E)-N-(4-((2,2-Dimethylmorpholin-4-yl)methyl)phenyl)-3-(4-(1-methyl-1H-pyrazol-4-yl)pyridin-3-yl)acrylamide], the values for the inhibition at 1 µM (in assay [1]; at CDK8/CycC; on CDK19 (CDC2L6/CycC)) were 61%, 97% and 101%, respectively.

On to `Cn1cc(-c2ccncc2/C=C/C(=O)Nc2ccc(CN3CCOCC3)cc2F)cn1` [Example 41, (2E)-N-(2-Fluoro-4-(morpholin-4-ylmethyl)phenyl)-3-(4-(1-methyl-1H-pyrazol-4-yl)pyridin-3-yl)acrylamide], for which the inhibition at 1 µM in assay [1] was found to be 56%; on CDK8/CycC, 99%; on CDK19 (CDC2L6/CycC) it was 97%.

`Cn1cc(-c2ccncc2/C=C/C(=O)Nc2ccc(CN3CCOCC3)c(Cl)c2)cn1` [Example 42, (2E)-N-(3-Chloro-4-(morpholin-4-ylmethyl)phenyl)-3-(4-(1-methyl-1H-pyrazol-4-yl)pyridin-3-yl)acrylamide]: the figures for the inhibition at 1 µM (in assay [1]; on CDK8/CycC; on CDK19 (CDC2L6/CycC)) were 53%, 99% and 99%, respectively.

For the compound `CC(c1ccc(NC(=O)/C=C/c2cnccc2-c2cnn(C)c2)cc1)N1CCOCC1` (stereo not drawn) [Example 43, (2E)-3-(4-(1-methyl-1H-pyrazol-4-yl)pyridin-3-yl)-N-(4-(1-(morpholin-4-yl)ethyl)phenyl)acrylamide], the inhibition at 1 µM came to 57% in assay [1], 96% at CDK8/CycC and 98% at CDK19 (CDC2L6/CycC).

Regarding `O=C(/C=C/c1cnccc1-c1cnn(CC2CC2)c1)Nc1ccc(CN2CCOCC2)cc1` [Example 45, (2E)-3-(4-(1-(Cyclopropylmethyl)-1H-pyrazol-4-yl)pyridin-3-yl)-N-(4-(morpholin-4-ylmethyl)phenyl)acrylamide], the inhibition at 1 µM in assay [1] was found to be 55%; at CDK8/CycC, 98%; at CDK19 (CDC2L6/CycC), 99%.

Take `O=C(/C=C/c1cnccc1-c1cnn(Cc2ccccn2)c1)Nc1ccc(CN2CCOCC2)cc1` [Example 47, (2E)-N-(4-(morpholin-4-ylmethyl)phenyl)-3-(4-(1-(pyridin-2-ylmethyl)-1H-pyrazol-4-yl)pyridin-3-yl)acrylamide]: the inhibition at 1 µM in assay [1] turned out to be 57%; at CDK8/CycC, 101%; at CDK19 (CDC2L6/CycC), 98%.

As to `Cn1cc(-c2ccncc2/C=C/C(=O)Nc2ccc(CNC3CC3)cc2)cn1` [Example 49, (2E)-N-(4-((cyclopropylamino)methyl)phenyl)-3-(4-(1-methyl-1H-pyrazol-4-yl)pyridin-3-yl)acrylamide], the inhibition at 1 µM in assay [1] stood at 56%; at CDK8/CycC it was 95%; on CDK19 (CDC2L6/CycC) it was 96%.

As to `Cn1cc(-c2ccncc2/C=C/C(=O)Nc2ccc(CN3CC4CCC(C3)O4)cc2)cn1` [Example 50, (2E)-3-(4-(1-methyl-1H-pyrazol-4-yl)pyridin-3-yl)-N-(4-(8-oxa-3-azabicyclo[3.2.1]oct-3-ylmethyl)phenyl)acrylamide], the results for the inhibition at 1 µM (in assay [1]; on CDK8/CycC; on CDK19 (CDC2L6/CycC)) were 61%, 96% and 97%, respectively.

Take `Cn1cc(-c2ccncc2/C=C/C(=O)Nc2ccc(CN3CC4CC3CO4)cc2)cn1` (stereo not drawn) [Example 51, (2E)-3-(4-(1-methyl-1H-pyrazol-4-yl)pyridin-3-yl)-N-(4-(2-oxa-5-azabicyclo[2.2.1]hept-5-ylmethyl)phenyl)acrylamide]: the results for the inhibition at 1 µM (in assay [1]; on CDK8/CycC; at CDK19 (CDC2L6/CycC)) were 58%, 100% and 96%, respectively.

Turning to `C[C@@H]1CN(Cc2ccc(NC(=O)/C=C/c3cnccc3-c3cnn(C)c3)cc2)C[C@H](C)O1` [Example 53, (2E)-N-(4-(((2R,65)-2,6-dimethylmorpholin-4-yl)methyl)phenyl)-3-(4-(1-methyl-1H-pyrazol-4-yl)pyridin-3-yl)acrylamide], the inhibition at 1 µM in assay [1] amounted to 58%; at CDK8/CycC it was 101%; on CDK19 (CDC2L6/CycC), 97%.

`CC1COCCN1Cc1ccc(NC(=O)/C=C/c2cnccc2-c2cnn(C)c2)cc1` (stereo not drawn) [Example 54, (2E)-N-(4-((3-methylmorpholin-4-yl)methyl)phenyl)-3-(4-(1-methyl-1H-pyrazol-4-yl)pyridin-3-yl)acrylamide]: the results for the inhibition at 1 µM (in assay [1]; at CDK8/CycC; at CDK19 (CDC2L6/CycC)) were 55%, 100% and 95%, respectively.

Turning to `CC1CN(Cc2ccc(NC(=O)/C=C/c3cnccc3-c3cnn(C)c3)cc2)CCO1` (stereo not drawn) [Example 55, (2E)-N-(4-((2-methylmorpholin-4-yl)methyl)phenyl)-3-(4-(1-methyl-1H-pyrazol-4-yl)pyridin-3-yl)acrylamide], the inhibition at 1 µM in assay [1] was 55%; on CDK8/CycC, 99%; at CDK19 (CDC2L6/CycC) it was 97%.

As to `Cn1cc(-c2ccncc2/C=C/C(=O)Nc2ccc(CN3CC(F)(F)OC(F)(F)C3)cc2)cn1` [Example 58], the inhibition at 1 µM in assay [1] amounted to 55%; at CDK8/CycC, 97%; on CDK19 (CDC2L6/CycC), 98%.

Turning to `Cn1cc(-c2ccncc2/C=C/C(=O)Nc2ccc(CN3CCC(F)(F)C3)cc2)cn1` [Example 68, (2E)-N-(4-((3,3-difluoropyrrolidin-1-yl)methyl)phenyl)-3-(4-(1-methyl-1H-pyrazol-4-yl)pyridin-3-yl)acrylamide], the inhibition at 1 µM in assay [1] is 62%; on CDK8/CycC, 99%; on CDK19 (CDC2L6/CycC), 100%.

For `Cn1cc(-c2ccncc2/C=C/C(=O)Nc2ccc(CN3CC(F)(F)C3)cc2)cn1` [Example 69, (2E)-N-(4-((3,3-difluoroazetidin-1-yl)methyl)phenyl)-3-(4-(1-methyl-1H-pyrazol-4-yl)pyridin-3-yl)acrylamide], the inhibition at 1 µM in assay [1] is 48%; on CDK8/CycC it was 99%; on CDK19 (CDC2L6/CycC) it was 99%.

`Cn1cc(-c2ccncc2/C=C/C(=O)Nc2ccc(CNCC(F)(F)C(F)(F)F)cc2)cn1` [Example 73, (2E)-3-(4-(1-methyl-1H-pyrazol-4-yl)pyridin-3-yl)-N-(4-(((2,2,3,3,3-pentafluoropropyl)amino)methyl)phenyl)acrylamide]: the inhibition at 1 µM in assay [1] is 56%; at CDK8/CycC, 101%; on CDK19 (CDC2L6/CycC), 99%.

As for `Cn1cc(-c2ccncc2/C=C/C(=O)Nc2ccc(CN3CCCC3CO)cc2)cn1` (stereo not drawn) [Example 76, (2E)-N-(4-((2-(hydroxymethyl)pyrrolidin-1-yl)methyl)phenyl)-3-(4-(1-methyl-1H-pyrazol-4-yl)pyridin-3-yl)acrylamide], the inhibition at 1 µM in assay [1] was determined as 52%; at CDK8/CycC, 104%; at CDK19 (CDC2L6/CycC), 93%.

On to `Cn1cc(-c2ccncc2/C=C/C(=O)Nc2ccc(CN3CCN4CCCC4C3)cc2)cn1` (stereo not drawn) [Example 78, (2E)-N-(4-(hexahydropyrrolo[1,2-a]pyrazin-2(1H)-ylmethyl)phenyl)-3-(4-(1-methyl-1H-pyrazol-4-yl)pyridin-3-yl)acrylamide], for which the inhibition at 1 µM in assay [1] stood at 59%; on CDK8/CycC, 100%; on CDK19 (CDC2L6/CycC), 74%.

The term inhibition denotes the relative decrease from the control value, in per cent.
